Assay results reported in paper PMC8286840, “Identifying SARS-CoV-2 antiviral compounds by screening for small molecule inhibitors of Nsp3 papain-like protease” (Biochemical Journal, 2021).
Counter-ions that a name gives are not always drawn. Like-named read-outs stand apart in the source and are kept apart here.

Legend:
[1] = target: T1, SARS-CoV-2 PLpro (nsp3 1564–1878) (Severe acute respiratory syndrome coronavirus 2, UniProt P0DTD1); assay: biochemical; set-up: FRET-quenched peptide (Pro3) cleavage by PLpro, 10 min pre-incubation, slope over 20 min, normalised to no-compound control; details: high concentration screen, read-out: % of control remaining
[2] = target: T1, SARS-CoV-2 PLpro (nsp3 1564–1878); assay: biochemical; set-up: FRET-quenched peptide (Pro3) cleavage by PLpro, 10 min pre-incubation, slope over 20 min, normalised to no-compound control; details: low concentration screen, read-out: % of control remaining

## CC(C)=CCc1cc2c(cc1O)oc(=O)c1c3ccc(O)cc3oc21 [3,9-dihydroxy-2-(3-methyl-2-butenyl)-6H-[1]benzofuro[3,2-c]chromen-6-one]
[1]; Well no.=6091
  remaining activity at 3.75 µM: 87.9%
[2]; Well no.=6091
  remaining activity at 1.25 µM: 95.4%

## COc1cc(-c2ccc(=O)[nH]n2)ccc1OC(F)F [Zardaverine]
[1]; Well no.=1438
  remaining activity at 3.75 µM: 94.9%
[1]; Well no.=2190
  remaining activity at 3.75 µM: 98.2%
[2]; Well no.=1438
  remaining activity at 1.25 µM: 95.5%
[2]; Well no.=2190
  remaining activity at 1.25 µM: 97.5%

## COc1cccc([C@@]2(O)CCCC[C@@H]2CN(C)C)c1 [Tramadol]
[1]; Well no.=2002
  remaining activity at 3.75 µM: 104%
[2]; Well no.=2002
  remaining activity at 1.25 µM: 104%

## Cc1cc(C(C)(C)C)c(O)c(C)c1CC1=NCCN1 [Oxymetazoline hydrochloride]
[1]; Well no.=896
  remaining activity at 3.75 µM: 101%
[2]; Well no.=896
  remaining activity at 1.25 µM: 103%

## COC(=O)c1ccc2c(C(=Nc3ccc(N(C)C(=O)CN4CCN(C)CC4)cc3)c3ccccc3)c(O)[nH]c2c1 [Vargatef]
[1]; Well no.=2847
  remaining activity at 3.75 µM: 104%
[2]; Well no.=2847
  remaining activity at 1.25 µM: 103%

## CCN(CC)CCNC(=O)c1cc(Cl)c(N)cc1OC [Metoclopramide (hydrochloride hydrate)]
[1]; Well no.=7435
  remaining activity at 3.75 µM: 109%
[2]; Well no.=7435
  remaining activity at 1.25 µM: 106%

## O=C(/C=C/C=C/c1ccc2c(c1)OCO2)N1CCCCC1 [Piperine]
[1]; Well no.=3110
  remaining activity at 3.75 µM: 94.5%
[1]; Well no.=8242
  remaining activity at 3.75 µM: 96.3%
[2]; Well no.=3110
  remaining activity at 1.25 µM: 92.8%
[2]; Well no.=8242
  remaining activity at 1.25 µM: 99.3%

## CC(=O)SCC(Cc1ccccc1)C(=O)NCC(=O)OCc1ccccc1 (stereo not shown) [Racecadotril]
[1]; Well no.=2191
  remaining activity at 3.75 µM: 95.7%
[2]; Well no.=2191
  remaining activity at 1.25 µM: 97.6%

## Cc1c(C(=O)NN2CCCCC2)nn(-c2ccc(Cl)cc2Cl)c1-c1ccc(Cl)cc1 [Rimonabant (Hydrochloride)]
[1]; Well no.=8011
  remaining activity at 3.75 µM: 90.1%
[2]; Well no.=8011
  remaining activity at 1.25 µM: 99.6%

## CCOC(=O)c1cnc2c(cnn2CC)c1NN=C(C)C [Etazolate]
[1]; Well no.=2144
  remaining activity at 3.75 µM: 97.1%
[2]; Well no.=2144
  remaining activity at 1.25 µM: 93.8%

## Cc1ccc2c(c1)[C@]13CCCC[C@@H]1[C@H](C2)N(C)CC3 [Dimemorfan (phosphate)]
[1]; Well no.=8523
  remaining activity at 3.75 µM: 103%
[2]; Well no.=8523
  remaining activity at 1.25 µM: 106%

## COc1ccc(N2C(=O)CSC2c2cccc(Br)c2)c(OC)c1 (stereo not shown) [2-(3-bromophenyl)-3-(2,4-dimethoxyphenyl)-1,3-thiazolidin-4-one]
[1]; Well no.=6016
  remaining activity at 3.75 µM: 98.8%
[2]; Well no.=6016
  remaining activity at 1.25 µM: 101%

## Clc1ccccc1CN1CCc2sccc2C1 [Ticlopidine (hydrochloride)]
[1]; Well no.=6270
  remaining activity at 3.75 µM: 109%
[1]; Well no.=8213
  remaining activity at 3.75 µM: 100%
[2]; Well no.=6270
  remaining activity at 1.25 µM: 107%
[2]; Well no.=8213
  remaining activity at 1.25 µM: 108%

## CN(CCOc1ccc(CC2SC(=O)NC2=O)cc1)c1ccccn1 (stereo not shown) [Rosiglitazone maleate]
[1]; Well no.=1651
  remaining activity at 3.75 µM: 105%
[2]; Well no.=1651
  remaining activity at 1.25 µM: 104%

## CC[C@@H]1/C=C(\C)C[C@H](C)C[C@H](OC)[C@H]2O[C@@](O)(C(=O)C(=O)N3CCCC[C@H]3C(=O)O[C@H](/C(C)=C/[C@@H]3CC[C@@H](O)[C@H](OC)C3)[C@H](C)[C@@H](O)CC1=O)[C@H](C)C[C@@H]2OC [Ascomycin]
[1]; Well no.=6638
  remaining activity at 3.75 µM: 98.9%
[1]; Well no.=7410
  remaining activity at 3.75 µM: 96.8%
[2]; Well no.=6638
  remaining activity at 1.25 µM: 102%
[2]; Well no.=7410
  remaining activity at 1.25 µM: 98%

## O=C(O)[C@@H]1[C@H](C(=O)O)[C@H]2CC[C@@H]1O2 [Endothall]
[1]; Well no.=701
  remaining activity at 3.75 µM: 97.8%
[2]; Well no.=701
  remaining activity at 1.25 µM: 97.9%

## CCOc1ccccc1-n1c(C(C)N2CCN(C(=O)COc3ccc(Cl)cc3)CC2)nc2ccccc2c1=O (stereo not shown) [Erastin]
[1]; Well no.=6732
  remaining activity at 3.75 µM: 96.5%
[2]; Well no.=6732
  remaining activity at 1.25 µM: 98.2%

## CCCCN1CCCC[C@H]1C(=O)Nc1c(C)cccc1C [Levobupivacaine hydrochloride]
[1]; Well no.=6043
  remaining activity at 3.75 µM: 105%
[2]; Well no.=6043
  remaining activity at 1.25 µM: 98.8%

## COc1cc2ncnc(N3CCN(C(=O)Nc4ccc(Oc5ccccc5)cc4)CC3)c2cc1OC [PDGF Receptor Tyrosine Kinase Inhibitor III]
[1]; Well no.=2505
  remaining activity at 3.75 µM: 106%
[2]; Well no.=2505
  remaining activity at 1.25 µM: 104%

## OC(CN1CCN(c2cccc(Cl)c2)CC1)C(c1ccccc1)c1ccccc1 (stereo not shown) [BRL-15572]
[1]; Well no.=5336
  remaining activity at 3.75 µM: 94.2%
[2]; Well no.=5336
  remaining activity at 1.25 µM: 94.9%

## C=CCNC(N)=S [Allylthiourea]
[1]; Well no.=5076
  remaining activity at 3.75 µM: 106%
[2]; Well no.=5076
  remaining activity at 1.25 µM: 106%

## Cc1ccc(S(=O)(=O)N2c3ccccc3Oc3ccccc32)cc1 [10-[(4-methylphenyl)sulfonyl]-10H-phenoxazine]
[1]; Well no.=6041
  remaining activity at 3.75 µM: 96.7%
[2]; Well no.=6041
  remaining activity at 1.25 µM: 96.2%

## Cc1cccc(-c2nn3c(c2-c2ccnc4ccc(C(N)=O)cc24)CCC3)n1 [LY2157299]
[1]; Well no.=4856
  remaining activity at 3.75 µM: 98.9%
[2]; Well no.=4856
  remaining activity at 1.25 µM: 99.9%

## CCCCC/C=C\C/C=C\C/C=C\CCCCC(=O)O [γ-Linolenic acid (18:3 n-6)]
[1]; Well no.=4307
  remaining activity at 3.75 µM: 100%
[2]; Well no.=4307
  remaining activity at 1.25 µM: 95%

## O=C(O)Cc1nn(Cc2nc3cc(C(F)(F)F)ccc3s2)c(=O)c2ccccc12 [Zopolrestat]
[1]; Well no.=5825
  remaining activity at 3.75 µM: 98.9%
[2]; Well no.=5825
  remaining activity at 1.25 µM: 98.5%

## COC(=O)c1cc2c(cn1)[nH]c1ccccc12 [Methyl beta-carboline-3-carboxylate]
[1]; Well no.=607
  remaining activity at 3.75 µM: 98.2%
[2]; Well no.=607
  remaining activity at 1.25 µM: 95.4%

## O=C(NCCN1CCOCC1)c1ccc(Cl)cc1 [Moclobemide]
[1]; Well no.=4640
  remaining activity at 3.75 µM: 98.5%
[2]; Well no.=4640
  remaining activity at 1.25 µM: 99.1%

## N=C(N)c1ccc(OCCCCCOc2ccc(C(=N)N)cc2)cc1 [Pentamidine HCl]
[1]; Well no.=4648
  remaining activity at 3.75 µM: 98.1%
[2]; Well no.=4648
  remaining activity at 1.25 µM: 98.3%

## CC(C)OC(=O)C1=CN(C(=O)c2ccc(F)c(F)c2)CC(C)(C)c2c1[nH]c1ccccc21 [WAY-362450]
[1]; Well no.=4928
  remaining activity at 3.75 µM: 96.2%
[2]; Well no.=4928
  remaining activity at 1.25 µM: 95.1%

## NS(=O)(=O)c1ccc(NC(=O)Nc2ccc(F)cc2)cc1 [U-104]
[1]; Well no.=8246
  remaining activity at 3.75 µM: 93.1%
[1]; Well no.=8566
  remaining activity at 3.75 µM: 103%
[2]; Well no.=8246
  remaining activity at 1.25 µM: 98%
[2]; Well no.=8566
  remaining activity at 1.25 µM: 103%

## C[C@@H](O[C@H]1OCCN(Cc2n[nH]c(=O)[nH]2)[C@H]1c1ccc(F)cc1)c1cc(C(F)(F)F)cc(C(F)(F)F)c1 [Aprepitant]
[1]; Well no.=2244
  remaining activity at 3.75 µM: 99.9%
[1]; Well no.=6703
  remaining activity at 3.75 µM: 97.7%
[2]; Well no.=2244
  remaining activity at 1.25 µM: 98.3%
[2]; Well no.=6703
  remaining activity at 1.25 µM: 102%

## O=C1CCCC(=O)C1C(=O)c1ccc(C(F)(F)F)cc1[N+](=O)[O-] [Nitisinone]
[1]; Well no.=5887
  remaining activity at 3.75 µM: 103%
[2]; Well no.=5887
  remaining activity at 1.25 µM: 103%
